From PubChem BioAssay (NCI)
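Briefly, cells in 96-well plates were exposed to five compound concentrations for 48 h, and endpoints were estimated by linear interpolation. TGI is the concentration that stops growth completely.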

Columns and labels:
Test in all cases: NCI anticancer screen, dose series, 48 h
TK-10 renal = tested on: TK-10 renal
HCT-116 colon = tested on: HCT-116 colon
DU-145 prostate = tested on: DU-145 prostate
HS 578T breast = tested on: HS 578T breast
SNB-19 CNS = tested on: SNB-19 CNS
786-0 renal = tested on: 786-0 renal
IGROV1 ovarian = tested on: IGROV1 ovarian
KM12 colon = tested on: KM12 colon
HOP-62 NSCLC = tested on: HOP-62 NSCLC
OVCAR-8 ovarian = tested on: OVCAR-8 ovarian
U251 CNS = tested on: U251 CNS
A549 NSCLC = tested on: A549 NSCLC
OVCAR-3 ovarian = tested on: OVCAR-3 ovarian
SF-295 CNS = tested on: SF-295 CNS
SK-OV-3 ovarian = tested on: SK-OV-3 ovarian
EKVX NSCLC = tested on: EKVX NSCLC
COLO 205 colon = tested on: COLO 205 colon
MDA-MB-435 = tested on: MDA-MB-435
MOLT-4 leukemia = tested on: MOLT-4 leukemia
HL-60(TB) leukemia = tested on: HL-60(TB) leukemia
RPMI-8226 leukemia = tested on: RPMI-8226 leukemia
HOP-92 NSCLC = tested on: HOP-92 NSCLC
NCI/ADR-RES ovarian = tested on: NCI/ADR-RES ovarian
MDA-N = tested on: MDA-N
NCI-H23 lung = tested on: NCI-H23 lung
RXF 393 renal = tested on: RXF 393 renal
HT29 colon = tested on: HT29 colon
SNB-75 CNS = tested on: SNB-75 CNS
OVCAR-5 ovarian = tested on: OVCAR-5 ovarian
CCRF-CEM leukemia = tested on: CCRF-CEM leukemia
NCI-H226 lung = tested on: NCI-H226 lung
SN12C renal = tested on: SN12C renal
OVCAR-4 ovarian = tested on: OVCAR-4 ovarian
BT-549 breast = tested on: BT-549 breast
SF-268 CNS = tested on: SF-268 CNS
PC-3 prostate = tested on: PC-3 prostate
SK-MEL-5 melanoma = tested on: SK-MEL-5 melanoma
SK-MEL-2 melanoma = tested on: SK-MEL-2 melanoma
K-562 leukemia = tested on: K-562 leukemia
HCT-15 colon = tested on: HCT-15 colon
SK-MEL-28 melanoma = tested on: SK-MEL-28 melanoma
T-47D breast = tested on: T-47D breast
UO-31 renal = tested on: UO-31 renal
SW-620 colon = tested on: SW-620 colon
NCI-H522 lung = tested on: NCI-H522 lung
M14 melanoma = tested on: M14 melanoma
MDA-MB-231 breast = tested on: MDA-MB-231 breast
MALME-3M melanoma = tested on: MALME-3M melanoma
ACHN renal = tested on: ACHN renal
A498 renal = tested on: A498 renal
CAKI-1 renal = tested on: CAKI-1 renal
SF-539 CNS = tested on: SF-539 CNS
LOX IMVI melanoma = tested on: LOX IMVI melanoma
UACC-257 melanoma = tested on: UACC-257 melanoma
NCI-H460 lung = tested on: NCI-H460 lung

Compound: CN1C2CCC1CN(CCOC(c1ccc(F)cc1)c1ccc(F)cc1)C2
- TGI (TK-10 renal): > 100 µM
- TGI (HCT-116 colon): 44.8 µM
- TGI (DU-145 prostate): > 100 µM
- TGI (HS 578T breast): > 100 µM
- TGI (SNB-19 CNS): > 100 µM
- TGI (786-0 renal): 40 µM
- TGI (IGROV1 ovarian): > 100 µM
- TGI (KM12 colon): 49.5 µM
- TGI (HOP-62 NSCLC): 59.3 µM
- TGI (OVCAR-8 ovarian): > 100 µM
- TGI (U251 CNS): 78.9 µM
- TGI (A549 NSCLC): > 100 µM
- TGI (OVCAR-3 ovarian): > 100 µM
- TGI (SF-295 CNS): 39.1 µM
- TGI (SK-OV-3 ovarian): > 100 µM
- TGI (EKVX NSCLC): > 100 µM
- TGI (COLO 205 colon): 33.8 µM
- TGI (MDA-MB-435): 63.7 µM
- TGI (MOLT-4 leukemia): 83.7 µM
- TGI (HL-60(TB) leukemia): 31.3 µM
- TGI (RPMI-8226 leukemia): 55.9 µM
- TGI (HOP-92 NSCLC): 93.9 µM
- TGI (NCI/ADR-RES ovarian): > 100 µM
- TGI (MDA-N): > 100 µM
- TGI (NCI-H23 lung): > 100 µM
- TGI (RXF 393 renal): 43 µM
- TGI (HT29 colon): 73.7 µM
- TGI (SNB-75 CNS): > 100 µM
- TGI (OVCAR-5 ovarian): > 100 µM
- TGI (CCRF-CEM leukemia): > 100 µM
- TGI (NCI-H226 lung): > 100 µM
- TGI (SN12C renal): > 100 µM
- TGI (OVCAR-4 ovarian): > 100 µM
- TGI (BT-549 breast): > 100 µM
- TGI (SF-268 CNS): > 100 µM
- TGI (PC-3 prostate): > 100 µM
- TGI (SK-MEL-5 melanoma): 27.8 µM
- TGI (SK-MEL-2 melanoma): 56.3 µM
- TGI (K-562 leukemia): 62.6 µM
- TGI (HCT-15 colon): > 100 µM
- TGI (SK-MEL-28 melanoma): 30.1 µM
- TGI (T-47D breast): 76.6 µM
- TGI (UO-31 renal): > 100 µM
- TGI (SW-620 colon): 83.8 µM
- TGI (NCI-H522 lung): > 100 µM
- TGI (M14 melanoma): 38.8 µM
- TGI (MDA-MB-231 breast): 58.5 µM
- TGI (MALME-3M melanoma): 32.5 µM
- TGI (ACHN renal): > 100 µM
- TGI (A498 renal): 86 µM
- TGI (CAKI-1 renal): > 100 µM
- TGI (SF-539 CNS): 38 µM
- TGI (LOX IMVI melanoma): 39.1 µM
- TGI (UACC-257 melanoma): 37.3 µM
- TGI (NCI-H460 lung): 60.6 µM
